From patent publication US10865211B2 (ENANTA PHARMACEUTICALS, INC, priority 2018, dated 2020)

Legend:
[1] = test system: 2.2.15 cells; assay: Antiviral activity in 2.2.15 cells: reduction of viral product accumulation (qPCR, HBsAg/HBeAg ELISA); type: cell-based, HBV; details: Hepatitis B virus, 120 h, day 5 post treatment, concentration reducing viral product accumulation in cell lysates or supernatants by 50% relative to no drug controls
Method in brief: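 HBV-producing 2.2.15 cells, 35,000/well, treated with 5-fold serial compound dilutions at 0.5% final DMSO for 5 days. Lysate HBV DNA by qPCR or supernatant HBsAg/HBeAg by ELISA; EC50 is 50% reduction versus no-drug control, binned A<0.1 μM, B 0.1-1 μM, C>1 μM.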

[2] = Compound induced cellular toxicity in HepG2 cells (ATPlite); type: cell-based; details: human, three days, ATPlite 1 Step, concentration reducing total ATP levels by 50% relative to no drug controls
Method: At day 3, post seeding cells are treated with ATPlite 1 Step according to the manufacturer's instructions.

| SMILES | EC50 [1] | CC50 at 3 days [2] |
| --- | --- | --- |
| CC(C)[C@@H]1Cc2c(oc3cc(-c4ccsc4)ccc23)-c2cc(=O)c(C(=O)O)cn21 [Example 76, (S)-6-isopropyl-2-oxo-10-(thiophen-3-yl)-6,7-dihydro-2H-benzofuro[2,3-a]quinolizine-3-carboxylic acid] | < 100 nM | > 25 µM |
| CC(C)[C@@H]1Cc2c(oc3c(OC(F)F)cccc23)-c2cc(=O)c(C(=O)O)cn21 [Example 77, (S)-11-(difluoromethoxy)-6-isopropyl-2-oxo-6,7-dihydro-2H-benzofuro[2,3-a]quinolizine-3-carboxylic acid] | < 100 nM | > 25 µM |
| CC(C)[C@@H]1Cc2c(oc3c(C#N)cccc23)-c2cc(=O)c(C(=O)O)cn21 [Example 78, (S)-11-cyano-6-isopropyl-2-oxo-6,7-dihydro-2H-benzofuro[2,3-a]quinolizine-3-carboxylic acid] | < 100 nM | > 25 µM |
| CC(C)[C@@H]1Cc2c(oc3c(-c4cccs4)cccc23)-c2cc(=O)c(C(=O)O)cn21 [Example 79, (S)-6-isopropyl-2-oxo-11-(thiophen-2-yl)-6,7-dihydro-2H-benzofuro[2,3-a]quinolizine-3-carboxylic acid] | < 100 nM | < 10 µM |
| CC(C)[C@@H]1Cc2c(oc3c(-c4ccsc4)cccc23)-c2cc(=O)c(C(=O)O)cn21 [Example 80, (S)-6-isopropyl-2-oxo-11-(thiophen-3-yl)-6,7-dihydro-2H-benzofuro[2,3-a]quinolizine-3-carboxylic acid] | < 100 nM | < 10 µM |
| CC(C)[C@@H]1Cc2c(oc3c(-n4cccn4)cccc23)-c2cc(=O)c(C(=O)O)cn21 [Example 81, (S)-6-isopropyl-2-oxo-11-(1H-pyrazol-1-yl)-6,7-dihydro-2H-benzofuro[2,3-a]quinolizine-3-carboxylic acid] | < 100 nM | > 25 µM |
| Cc1cccc2c3c(oc12)-c1cc(=O)c(C(=O)O)cn1[C@H](C(C)C)C3 [Example 82, (S)-6-isopropyl-11-methyl-2-oxo-6,7-dihydro-2H-benzofuro[2,3-a]quinolizine-3-carboxylic acid] | < 100 nM | > 25 µM |
| CC(C)[C@@H]1Cc2c(oc3c(C4CC4)cccc23)-c2cc(=O)c(C(=O)O)cn21 [Example 83, (S)-11-cyclopropyl-6-isopropyl-2-oxo-6,7-dihydro-2H-benzofuro[2,3-a]quinolizine-3-carboxylic acid] | < 100 nM | < 10 µM |
| CC(C)[C@@H]1Cc2c(oc3c(-c4cnco4)cccc23)-c2cc(=O)c(C(=O)O)cn21 [Example 84, (S)-6-isopropyl-11-(oxazol-5-yl)-2-oxo-6,7-dihydro-2H-benzofuro[2,3-a]quinolizine-3-carboxylic acid] | < 100 nM | > 25 µM |
